Patent US12509431B2, “1,4-dihydroquinazolinone compounds and uses thereof” (Edgewise Therapeutics, Inc., priority 2022, dated 2025)

What was measured:
[1] = target: T1, myosin+human ventricle RLC (Sus scrofa, UniProt P79293); assay: NADH-coupled actin-activated ATPase assay, myosin + human ventricle RLC; format: biochemical; conditions: 2 μM myosin, rabbit skeletal actin, 25° C., 1% DMSO
T1 construct: Full-length myosin was resuspended to 1 mg/mL
Description: Full-length myosin was resuspended to 1 mg/mL in a buffer containing 500 mM KCl, 10 mM KPi, 15 mM CDTA, pH 8.5. Triton-X was then added to a final concentration of […], and the suspension was agitated for 15 minutes at room temperature to selectively remove the regulatory light chain (RLC). RLC-removed myosin was then precipitated and collected and resuspended in a buffer containing 400 mM KCl, 50 mM Mops, pH 7, 2 mM MgCl2, and 1 mM DTT. Recombinantly expressed and purified human ventricle RLC was added in a 3-fold molar excess to myosin and incubated on ice for 2 hours to allow for reassociation of the RLC onto myosin. Triton (0.1%) was added to the reaction to prevent any non-specific binding events. RLC-exchanged myosin was then precipitated and collected and resuspended in a buffer containing 12 mM PIPES, pH 6.8, […], 2 mM MgCl2, and 1 mM DTT. RLC removal and exchange were confirmed by SDS-PAGE and proteins were visualized using coomassie stain.
Myosin was resuspended in buffer A (f.c.=12 mM PIPES, pH 6.8, 30 mM KCl, 2 mM MgCl2, 1 mM DTT, 0.1 mg/mL BSA, 0.01% (v/v) Antifoam 204, and 0.6% (v/v) PK/LDH (final reaction contains ≥3.6 U/mL PK and >5.4 U/mL LDH)) at final concentrations of 1 μM for myosin+native RLC and 2 μM for myosin+removed RLC and myosin+human ventricle RLC. Buffer A was then mixed with an equal volume of buffer B (f.c.=12 mM PIPES, pH 6.8, 30 mM KCl, 2 mM MgCl2, 1 mM DTT, 0.1 mg/mL BSA, 0.01% (v/v) Antifoam 204, 0.5 mM NADH, 1.5 mM phosphoenolpyruvate, 1 mM ATP, and 0.3 mg/mL filamentous rabbit skeletal actin) in a 384-well plate. Dose-dependent compound effects were assessed by adding the compounds at varying concentrations between 100 μM and 2 nM, all with a constant final DMSO concentration of 1% v/v. The reactions were run at a constant temperature of 25° C. in the plate reader to monitor the change in A340 over time. Measurements were taken every 90 sec for 75 min to generate raw time-domain absorbance data, which was processed to normalized reaction rates. Normalized enzymatic rates were calculated, using rates observed in 1% (v/v) in DMSO as 100% and 0 slope as 0%. Compound-specific activity curves were generated by plotting the normalized rates versus compound concentration and fitting the data to a 4-parameter logistic model. In addition to the fit parameters, the IC25% was calculated, relative to the 100% normalized value.

[2] = target: T2, Porcine Ventricle myofibrils (left ventricle of Yucatan minipigs) (Sus scrofa, UniProt P79293); assay: Myofibril ATPase assay (PK/LDH NADH-coupled), ventricle myofibrils; format: biochemical
T2 construct: Myofibrils from porcine cardiac muscle was isolated from the left ventricle of Yucatan minipigs; tissue Exemplar Genetics; host or cells: left ventricle of Yucatan minipigs
How it was run: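 NADH depletion (A340) coupled through pyruvate kinase/lactate dehydrogenase reports ATPase rate of porcine left-ventricle myofibrils over 75 min kinetic reads. Regression slopes, vehicle-normalized, fitted by 4-parameter logistic give EC25 and, where available, EC50.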

T2 sequence (P79293 whole entry): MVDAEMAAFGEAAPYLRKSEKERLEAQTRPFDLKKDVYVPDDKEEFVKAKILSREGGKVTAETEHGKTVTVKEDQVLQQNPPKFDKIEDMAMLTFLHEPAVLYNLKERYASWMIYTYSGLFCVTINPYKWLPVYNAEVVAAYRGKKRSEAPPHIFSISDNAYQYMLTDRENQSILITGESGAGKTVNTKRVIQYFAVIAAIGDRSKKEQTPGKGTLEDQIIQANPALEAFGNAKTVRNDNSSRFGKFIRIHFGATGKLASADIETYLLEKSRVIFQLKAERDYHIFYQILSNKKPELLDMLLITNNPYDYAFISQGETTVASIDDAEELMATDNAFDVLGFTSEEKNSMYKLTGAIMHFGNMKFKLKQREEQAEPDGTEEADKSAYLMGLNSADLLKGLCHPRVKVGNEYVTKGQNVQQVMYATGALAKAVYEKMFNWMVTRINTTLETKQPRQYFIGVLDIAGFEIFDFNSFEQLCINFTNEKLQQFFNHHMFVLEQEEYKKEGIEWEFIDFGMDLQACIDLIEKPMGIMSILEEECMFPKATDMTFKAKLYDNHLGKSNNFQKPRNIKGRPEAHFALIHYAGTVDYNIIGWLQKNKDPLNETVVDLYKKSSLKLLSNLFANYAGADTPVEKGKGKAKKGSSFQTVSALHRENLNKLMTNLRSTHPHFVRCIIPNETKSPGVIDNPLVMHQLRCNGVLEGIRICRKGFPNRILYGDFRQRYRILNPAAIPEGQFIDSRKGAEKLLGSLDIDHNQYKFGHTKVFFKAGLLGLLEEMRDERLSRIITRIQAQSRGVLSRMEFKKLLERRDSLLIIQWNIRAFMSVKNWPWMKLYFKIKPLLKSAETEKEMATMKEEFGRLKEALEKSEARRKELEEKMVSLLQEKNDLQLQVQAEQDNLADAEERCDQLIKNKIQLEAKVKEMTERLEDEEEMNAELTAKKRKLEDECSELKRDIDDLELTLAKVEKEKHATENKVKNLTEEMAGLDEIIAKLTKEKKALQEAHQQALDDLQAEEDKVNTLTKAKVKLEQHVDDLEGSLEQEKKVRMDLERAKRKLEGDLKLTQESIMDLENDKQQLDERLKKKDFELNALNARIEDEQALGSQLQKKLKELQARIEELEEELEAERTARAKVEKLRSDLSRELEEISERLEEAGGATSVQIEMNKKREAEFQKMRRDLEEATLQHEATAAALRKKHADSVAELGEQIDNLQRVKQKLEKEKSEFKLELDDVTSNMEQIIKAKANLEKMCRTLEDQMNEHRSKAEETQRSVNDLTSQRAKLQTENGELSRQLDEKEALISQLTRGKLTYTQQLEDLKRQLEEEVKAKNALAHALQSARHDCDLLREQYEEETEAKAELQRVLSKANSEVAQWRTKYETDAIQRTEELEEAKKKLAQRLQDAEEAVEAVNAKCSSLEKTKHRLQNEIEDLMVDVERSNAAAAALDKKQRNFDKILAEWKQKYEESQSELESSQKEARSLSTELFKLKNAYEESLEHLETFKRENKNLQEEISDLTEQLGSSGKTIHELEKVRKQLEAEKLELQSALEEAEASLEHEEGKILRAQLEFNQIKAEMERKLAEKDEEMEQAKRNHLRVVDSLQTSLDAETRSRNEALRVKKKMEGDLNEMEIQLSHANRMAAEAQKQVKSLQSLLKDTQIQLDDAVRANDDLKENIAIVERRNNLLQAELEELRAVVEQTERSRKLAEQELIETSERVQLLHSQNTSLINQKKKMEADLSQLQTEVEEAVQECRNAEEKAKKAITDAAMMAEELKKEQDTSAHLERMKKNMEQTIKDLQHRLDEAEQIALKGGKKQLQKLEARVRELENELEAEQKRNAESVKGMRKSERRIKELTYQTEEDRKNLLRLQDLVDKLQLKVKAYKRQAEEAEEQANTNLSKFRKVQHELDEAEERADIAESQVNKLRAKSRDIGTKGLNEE
T1 sequence (P79293 whole entry): as above

Structure (SMILES) | Potency, Full-length myosin + exchanged human ventricle RLC [1] | Porcine Ventricle IC25 ([2]; Table 8) | Porcine Ventricle IC25 ([2]; Table 7)
N#Cc1cnc2c(c1)OCC2NC(=O)CN1Cc2c(ccc(F)c2F)NC1=O (single isomer, unassigned) [Compound B65] | 690 nM | 166.7 nM | 
CC(NC(=O)CN1Cc2cc(F)ccc2NC1=O)c1ccc(C#N)cc1F (single isomer, unassigned) [Compound B206] | 680 nM | 47.69 nM | 
C[C@@H](NC(=O)CN1Cc2c(ccc(F)c2F)NC1=O)c1ncc(C#N)cc1F [Compound B141, (R)—N-(1-(5-cyano-3-fluoropyridin-2-yl)ethyl)-2-(5,6-difluoro-2-oxo-1,4-dihydroquinazolin-3(2H)-yl)acetamide] | 13900 nM | 3094 nM | 
O=C(CN1Cc2cc(F)ccc2NC1=O)N[C@@H]1COc2cc(F)cc(F)c21 [Compound B145] | 670 nM | 51.2 nM | 
O=C(CN1Cc2c(ccc(F)c2F)NC1=O)N[C@@H]1COc2cc(F)cc(F)c21 [Compound B147] | 480 nM | 77.66 nM | 
C[C@H](NC(=O)CN1Cc2c(ccc(F)c2F)NC1=O)c1ccc(C#N)cc1F [Compound B189] | 330 nM | 77.43 nM | 
C[C@H](NC(=O)CN1Cc2c(ccc(F)c2F)NC1=O)c1ncc(F)cc1F [Compound B191] | 440 nM | 191.3 nM | 
C[C@H](NC(=O)CN1Cc2cc(F)ccc2NC1=O)c1ncc(C#N)cc1F [Compound B199] | 629 nM | 569.3 nM | 
C[C@H](NC(=O)CN1Cc2cc(F)ccc2NC1=O)c1ccc(F)cc1F [Compound B247, N-[(1S)-1-(2,4-Difluorophenyl)ethyl]-2-(6-fluoro-2-oxo-1,4-dihydroquinazolin-3-yl)acetamide] | 1020 nM | 296.8 nM | 
O=C(CN1C(=O)Nc2cccnc2C12CC2)N[C@@H]1COc2cc(F)cc(F)c21 [Compound N33] | 400 nM |  | 283.2 nM
